In PubChem BioAssay (NCI):
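Following 48 hours of exposure in 96-well plates, responses at five concentrations were used to interpolate endpoints linearly. GI50 = concentration required for 50% inhibition of growth. The concentration for full growth arrest is given as TGI.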

Legend:
Test in all cases: DTP human tumour cell line panel, 48 h
HCC-2998 colon = system: HCC-2998 colon
K-562 leukemia = system: K-562 leukemia
NCI-H23 lung = system: NCI-H23 lung
OVCAR-5 ovarian = system: OVCAR-5 ovarian
OVCAR-8 ovarian = system: OVCAR-8 ovarian
RXF 393 renal = system: RXF 393 renal
SK-OV-3 ovarian = system: SK-OV-3 ovarian
SNB-19 CNS = system: SNB-19 CNS
UACC-62 melanoma = system: UACC-62 melanoma
NCI-H226 lung = system: NCI-H226 lung

Structure (SMILES)	TGI (HCC-2998 colon)	TGI (K-562 leukemia)	TGI (NCI-H23 lung)	TGI (OVCAR-5 ovarian)	TGI (OVCAR-8 ovarian)	TGI (RXF 393 renal)	TGI (SK-OV-3 ovarian)	TGI (SNB-19 CNS)	TGI (UACC-62 melanoma)	GI50 (HCC-2998 colon)	GI50 (K-562 leukemia)	GI50 (NCI-H226 lung)	TGI (NCI-H226 lung)	GI50 (NCI-H23 lung)	GI50 (OVCAR-5 ovarian)	GI50 (OVCAR-8 ovarian)	GI50 (SK-OV-3 ovarian)	GI50 (SNB-19 CNS)	GI50 (UACC-62 melanoma)	GI50 (RXF 393 renal)
Cc1ccc(S(=O)(=O)N2CCN(C=S)CC2)cc1	> 100 µM	> 100 µM	> 100 µM	> 100 µM	> 100 µM	> 100 µM	> 100 µM	> 100 µM	> 100 µM											
O=C1CC(c2ccccc2)Cc2nc3ccc(Br)cc3cc21 (stereo not given)	16.8 µM	> 100 µM	> 100 µM	> 100 µM	> 100 µM		> 100 µM	> 100 µM	> 100 µM	1.57 µM	0.162 µM	0.908 µM	> 20.3 µM	0.575 µM	0.757 µM	0.4 µM	0.694 µM	0.495 µM	0.26 µM	
CCOC(=O)C1=C(C)NC(=O)NC1CN1C(=O)c2ccccc2C1=O (stereo not given)	> 100 µM	> 100 µM	> 100 µM	> 100 µM	> 100 µM	> 100 µM	> 100 µM	> 100 µM	> 100 µM	> 100 µM	> 100 µM			> 100 µM	> 100 µM	> 100 µM	> 100 µM	> 100 µM	> 100 µM	> 100 µM
CN(C)CC(=O)Nc1ccc2ncnc(Nc3ccc(Oc4cccc(C(F)(F)F)c4)c(Cl)c3)c2c1	3.19 µM	6.52 µM	14.8 µM	12.9 µM	13.1 µM	3.25 µM		14.4 µM	3.69 µM	1.66 µM	2.21 µM			3.79 µM	3.04 µM	3.24 µM		3.34 µM	1.91 µM	1.61 µM
COc1cc(-c2nc3sc(C)cn3c2/C=C2\C(=O)Nc3ccccc32)c(Br)c(OC)c1OC	78 µM	> 100 µM	> 100 µM	> 100 µM	> 100 µM		73.8 µM	63.9 µM	> 100 µM	29 µM	48.4 µM	44.2 µM	> 100 µM	30.9 µM	55.9 µM	> 100 µM	28.9 µM	23.9 µM	34 µM	
CC1=NN(C(=O)Nc2ccc(Cl)cc2)C(=O)C2CCC(=O)N12 (stereo not given)	> 100 µM	> 100 µM	> 100 µM		> 100 µM	> 100 µM	> 100 µM	> 100 µM	> 100 µM											
O=C(Cc1nc2ccccc2o1)C(=O)Nc1cccc(Cl)c1	> 100 µM	> 100 µM	> 100 µM		> 100 µM	> 100 µM	> 100 µM	> 100 µM	> 100 µM				> 100 µM							
Cc1cc(N2CCCCC2)nc(NC2CCCC(Nc3ccnc4cc(Cl)ccc34)C2)n1 (stereo not given)	3.4 µM	1.23 µM		4.84 µM	3.27 µM	2.47 µM	3.17 µM	3.44 µM		1.75 µM	0.316 µM	1.99 µM	3.9 µM		1.88 µM	1.73 µM	1.65 µM	1.58 µM		1.12 µM
COC(=O)c1ccc(/C=C(\c2ccc([N+](=O)[O-])o2)S(=O)(=O)c2ccc(NC(C)=O)cc2)o1		18.1 µM	28.3 µM	10.9 µM	11.8 µM	25.7 µM	38.2 µM	32.2 µM	4.31 µM				7.98 µM							
CC(=O)CC/C=C(\C)[C@H](O)[C@H](C)C(=O)O[C@H]1C[C@H](C)C=C2C=C[C@@]3(C)O[C@@H](O)CC(=O)[C@]3(C)[C@H]21	1.96 µM		2.44 µM	6.62 µM	6 µM	0.867 µM	6.42 µM	2.49 µM	2.14 µM	0.394 µM		0.423 µM	4.6 µM	0.384 µM	1.04 µM	0.425 µM	1.26 µM	0.331 µM	0.618 µM	0.233 µM
CC(=O)O[C@H]1CCN2C(=O)C=CC(OCc3ccccc3)C12 (stereo not given in full)	> 100 µM	> 100 µM	> 100 µM	> 100 µM	> 100 µM		> 100 µM		> 100 µM				> 100 µM							
COc1cc([N+](=O)[O-])c(OC)cc1-c1nc2sc(C)cn2c1/C(N)=N/C(=N)N		> 100 µM	> 100 µM	> 100 µM	> 100 µM	> 100 µM	> 100 µM	> 100 µM	52.4 µM		2.59 µM	43.2 µM	> 100 µM	89.6 µM	> 100 µM	35.7 µM	> 100 µM	39.4 µM	23.8 µM	39.8 µM
O=C(c1ccccc1Cl)n1oc2ccccc2c1=O		> 100 µM		> 100 µM	> 100 µM	> 100 µM	> 100 µM	> 100 µM	> 100 µM				> 100 µM							
CCCCCCn1c(SC)nc(COC(=O)NC)c1COC(=O)NC		> 100 µM	41.2 µM	34.6 µM	34.3 µM		33.2 µM	29.8 µM	28.2 µM				33.3 µM							
CN(C)CCC(CCN(C)C)=NO	> 100 µM	> 100 µM	> 100 µM		> 100 µM	> 100 µM	> 100 µM	> 100 µM	> 100 µM											
COc1ccc(C2CC(c3ccc(Nc4ccnc5cc(Cl)ccc45)cc3)=NN2C=O)cc1 (stereo not given)	> 100 µM		> 100 µM	> 100 µM	> 100 µM	> 100 µM	> 100 µM	> 100 µM	49.8 µM	18.1 µM		> 100 µM	> 100 µM	50.6 µM	> 100 µM	69.8 µM	> 100 µM	56.5 µM	5.99 µM	11.6 µM
Oc1ccc2ccccc2c1N=Nc1cc(Cl)ccc1Cl		> 50 µM	> 50 µM	> 50 µM	30.2 µM	> 50 µM	41.2 µM	> 50 µM	> 50 µM				> 50 µM							
O=C(N/C(=C\c1cccc([N+](=O)[O-])c1)c1nc2ccccc2[nH]1)c1ccccc1	> 100 µM	> 100 µM	> 100 µM	> 100 µM	> 100 µM		> 100 µM	> 100 µM	> 100 µM				> 100 µM							
